Measured values published in patent US11312758B2, “Peptides with vasodilatory and/or diuretic functions” (National University of Singapore, priority 2016, dated 2022).
Several values for one entry are separate records, joined by “and”; a condition that tells them apart may be missing. Identical values can stand only once. Positions of bridges follow the written chain, without caps; N, C: chain ends. Residues, ends and D or L forms follow the SMILES beside them.

Assays:
[1] = tested on: anesthetized male SD rats; experiment: In-vivo activity assay: peptide infusion in anesthetized rats (MAP, HR, PP, urine flow); set-up: species or system rat
Method: Male Sprague-Dawley (SD) rats (220-280 g) were obtained from Invivos, Singapore. Animals were acclimatized in the Animal Holding unit, NUS for 3 days before the experiment. The experiments were conducted under the guidance and approval of Institutional Animal Care and Use Committee, NUS (041/12).
The experiments were performed as described in Sridharan et al., [Biochem J 469 (2): 255-66 (2015)]. In brief, animals were anesthetized with sodium pentobarbital (60-70 mg/kg) and catheters were inserted in femoral artery, vein and urinary bladder. The body temperature of the animals was maintained using a thermostatic heat pad at 37° C. Continuous infusions (2 ml/h) of 0.2% BSA saline (with or without peptide) was administered through the femoral vein while a pressure transducer attached to the femoral artery recorded on-line changes in mean arterial pressure (MAP), heart rate (HR) and pulse pressure (PP). Urine was collected and the volume was measured after every 10 min. Experiments encompassed control (2×10 min), experimental (1×10 min) and recovery (4×10 min) periods. All animals were euthanized at the end of the experiment in carbon-di-oxide chambers.

rat NPR-A [2] = molecular target: T1, rat NPR-A (Rattus norvegicus, UniProt P18910); experiment: Whole cell cGMP assay, 30 min end-point dose-response in CHO-K1 cells transiently expressing NPR-A; assay type: cell-based; details: for NPR-A activation potency, Ratio compared wild type NPs: negative = more potent than wild type
T1 construct: expressed in transfected cells; host or cells: CHO-K1
T1 sequence (P18910 29-1057): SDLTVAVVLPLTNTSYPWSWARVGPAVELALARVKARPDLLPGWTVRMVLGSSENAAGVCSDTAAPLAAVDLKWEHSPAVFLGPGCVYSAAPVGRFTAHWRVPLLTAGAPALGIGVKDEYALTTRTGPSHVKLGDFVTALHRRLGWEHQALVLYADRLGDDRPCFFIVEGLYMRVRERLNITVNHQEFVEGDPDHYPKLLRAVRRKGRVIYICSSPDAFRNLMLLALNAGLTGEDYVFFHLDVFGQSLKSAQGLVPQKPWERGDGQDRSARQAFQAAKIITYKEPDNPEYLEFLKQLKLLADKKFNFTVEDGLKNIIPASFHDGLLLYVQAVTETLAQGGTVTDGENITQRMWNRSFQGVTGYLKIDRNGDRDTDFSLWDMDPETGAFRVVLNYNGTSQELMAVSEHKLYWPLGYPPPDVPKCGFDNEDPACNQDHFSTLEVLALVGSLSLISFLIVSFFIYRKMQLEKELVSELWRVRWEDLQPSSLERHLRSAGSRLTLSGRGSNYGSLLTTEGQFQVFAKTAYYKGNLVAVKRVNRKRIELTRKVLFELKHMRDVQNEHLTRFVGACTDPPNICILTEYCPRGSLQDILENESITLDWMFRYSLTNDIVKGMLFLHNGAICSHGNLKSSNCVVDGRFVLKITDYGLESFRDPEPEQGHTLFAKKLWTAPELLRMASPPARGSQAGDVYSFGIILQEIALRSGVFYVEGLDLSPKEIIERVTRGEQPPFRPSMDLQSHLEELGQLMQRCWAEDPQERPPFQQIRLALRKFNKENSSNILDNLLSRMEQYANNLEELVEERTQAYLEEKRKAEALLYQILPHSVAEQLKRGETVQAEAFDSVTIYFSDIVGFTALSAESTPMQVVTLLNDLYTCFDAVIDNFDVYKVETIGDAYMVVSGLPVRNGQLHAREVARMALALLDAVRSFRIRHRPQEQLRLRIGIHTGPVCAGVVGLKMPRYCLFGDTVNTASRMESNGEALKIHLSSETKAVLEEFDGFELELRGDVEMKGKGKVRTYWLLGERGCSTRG
Method: (§1) The experiments were performed as described in Sridharan et al., [Biochem J 469 (2): 255-66 (2015)]. Dulbecco's modified Eagle's medium supplemented with 10% fetal bovine serum, 100 U/ml penicillin and 100 μg/ml streptomycin and 2 mM glutamine was used to grow CHO-K1 cells in a humidified incubator at 37° C. with 5% CO2. The cells were maintained by sub-culturing using 0.5% trypsin every three days. Cells (1×10^5) were seeded per well in 24-well plate and grown for 16 h. Cells in each well were transfected with 0.8 μg of plasmid encoding rat NPR-A using 2 μl of Lipofectamine™ 2000 transfection reagent. Cells were treated with the peptides 24 h after transfection.
NPR-A transfected CHO-K1 cells were treated with varying concentrations of peptides (10 nM to 10 μM dissolved in basal media containing 0.5 mM IBMX) for 30 min. The end-point accumulation of cGMP was measured after cell-lysis with 200 μl of 0.1 N HCl using Enzo life sciences cGMP ELISA kit (manufacturer's protocol).

rat NPR-A [3] = molecular target: T1, rat NPR-A; experiment: Time-chase study of cGMP accumulation (NPR-A activation kinetics) at EC50 concentration of peptide; assay type: cell-based
Method: as §1
Time-chase study was performed by treating the cells with EC50 concentration of the peptides. The reactions were terminated at the indicated time-points (0, 2, 5, 10, 20 and 30 min) by treating the cells with 0.1 N HCl. The cGMP concentration in the cell lysate was measured using cGMP ELISA kit (Enzo life sciences).

[4] = 2.0 nmol/kg/min infusion, listed as DRDAND
[5] = equimolar infusion (2 nmol/kg/min)

| SMILES | HR Rate of change per unit change in MAP ([1]; 2 nmol/kg/min infusion) | PP Rate of change per unit change in MAP ([1]; 2 nmol/kg/min infusion) | Mean arterial pressure Peak response ([1]; 2.0 nmol/kg/min infusion) | Urine flow rate Peak Time ([1]; 2.0 nmol/kg/min infusion) [min] | Urine flow rate Peak response ([1]; 2.0 nmol/kg/min infusion) | NPR-A activation potency, Ratio compared ANP (rat NPR-A [2]) | fold drop in activity compared to ANP (rat NPR-A [2]; cGMP response) [fold] | NPR-A activation potency, Ratio compared wild type NPs (rat NPR-A [2]) | Rate of generation of cGMP, Ratio compared ANP (rat NPR-A [3]) | Rate of generation of cGMP, Ratio compared wild type NPs (rat NPR-A [3]) | times slower activation kinetics compared to the wild type (ANP) (rat NPR-A [3]) [times] | Rate of generation of cGMP (rat NPR-A [3]; EC50 concentration of peptide) [pmol cGMP/pmol peptide] | time of peak / maximum accumulation of cGMP (rat NPR-A [3]; EC50 concentration of peptide) [min] | Heart rate Peak response ([1]; 2.0 nmol/kg/min infusion) | Heart rate Peak time ([1]; 2.0 nmol/kg/min infusion) [min] | Mean arterial pressure Peak time ([1]; 2.0 nmol/kg/min infusion) [min] | Pulse pressure Peak time ([1]; 2.0 nmol/kg/min infusion) [min] | further results |
| --- | --- | --- | --- | --- | --- | --- | --- | --- | --- | --- | --- | --- | --- | --- | --- | --- | --- | --- |
| CC[C@H](C)[C@@H]1NC(=O)[C@H](CCCNC(=N)N)NC(=O)[C@H](CC(=O)O)NC(=O)[C@H](CCSC)NC(=O)[C@H](CCCNC(=N)N)NC(=O)CNC(=O)[C@H](CC(=O)O)NC(=O)[C@H](Cc2ccccc2)NC(=O)[C@@H](NC(=O)[C@H](CO)NC(=O)[C@H](CO)NC(=O)[C@H](CCCNC(=N)N)NC(=O)[C@H](CCCNC(=N)N)NC(=O)[C@H](CC(C)C)NC(=O)[C@@H](N)CO)CSSC[C@@H](C(=O)N[C@@H](CC(N)=O)C(=O)N[C@@H](CO)C(=O)N[C@@H](Cc2ccccc2)C(=O)N[C@@H](CCCNC(=N)N)C(=O)N[C@@H](Cc2ccc(O)cc2)C(=O)O)NC(=O)CNC(=O)[C@H](CC(C)C)NC(=O)[C@H](CC(=O)O)NC(=O)[C@H](CO)NC(=O)[C@H](CCC(N)=O)NC(=O)[C@H](C)NC(=O)CNC1=O [^DGDANP] (H-SLRRSSCFDGRMDRIGAQSDLGCNSFRY-OH; disulfide 7-23; N-terminus assumed) | 4.4 | 0.5 | −4.8±2.3 mmHg and −4.8 ± 2.9 mmHg | 30 | 7.9 ± 2.1 µL/min and 7.9 ± 2.0 µL/min | 7.8 | 8 | 7.8 | 56.9 | 56.9 | 7.8 | 0.14 | 10 | – | – | – | – | delay of the peak of diuresis ([1]; 2 nmol/kg/min infusion): 10 min |
| CC[C@H](C)[C@@H]1NC(=O)[C@H](CCCNC(=N)N)NC(=O)[C@H](CC(=O)O)NC(=O)[C@H](CCSC)NC(=O)[C@H](CCCNC(=N)N)NC(=O)[C@H](CCCNC(=N)N)NC(=O)[C@H](CC(=O)O)NC(=O)[C@H](Cc2ccccc2)NC(=O)[C@@H](NC(=O)[C@H](CO)NC(=O)[C@H](CO)NC(=O)[C@H](CCCNC(=N)N)NC(=O)[C@H](CCCNC(=N)N)NC(=O)[C@H](CC(C)C)NC(=O)[C@@H](N)CO)CSSC[C@@H](C(=O)N[C@@H](CC(N)=O)C(=O)N[C@@H](CO)C(=O)N[C@@H](Cc2ccccc2)C(=O)N[C@@H](CCCNC(=N)N)C(=O)N[C@@H](Cc2ccc(O)cc2)C(=O)O)NC(=O)CNC(=O)[C@H](CC(C)C)NC(=O)[C@H](CC(=O)O)NC(=O)[C@H](CO)NC(=O)[C@H](CCC(N)=O)NC(=O)[C@H](C)NC(=O)CNC1=O [^DRDANP] (H-SLRRSSCFDRRMDRIGAQSDLGCNSFRY-OH; disulfide 7-23; N-terminus assumed) | 4.5 | 0.5 | −18.3±2.3 mmHg | 20 | 18.7 ± 0.7 µL/min | 2.6 | 3 | 2.6 | 21.0 | 21.0 | 2.6 | 0.38 | 10 | −66.6±14.6 BPM | 30 | 30 | 20 | Heart rate Peak response ([1]; 0.2 nmol/kg/min infusion): −37.5±9.5 BPM; Heart rate Peak time ([1]; 0.2 nmol/kg/min infusion): 30 min; Mean arterial pressure Peak response ([1]; 0.2 nmol/kg/min infusion): −12.9±1.5 mmHg; Mean arterial pressure Peak time ([1]; 0.2 nmol/kg/min infusion): 30 min; Pulse pressure Peak time ([1]; 0.2 nmol/kg/min infusion): 20 min; Urine flow rate Peak response ([1]; 0.2 nmol/kg/min infusion): <2 µL/min; diuresis ([1]; 0.2 nmol/kg/min infusion): failed to induce diuresis; Pulse pressure Peak response ([1]; 2.0 nmol/kg/min infusion): −7.9±1.8 mmHg; Heart rate Peak response [1, 4]: −66.6 ± 14.5 BPM; Mean arterial pressure Peak response [1, 4]: −18.4 ± 2.4 mmHg; Pulse pressure Peak response [1, 4]: −8.0 ± 1.8 mmHg; Urine flow rate Peak response [1, 4]: 18.8 ± 0.7 µL/min; diuresis compared to K-Ring^NSFRY [1, 5]: 2 fold; influence on HR compared to K-Ring^NSFRY [1, 5]: 2 fold |
| CC[C@H](C)[C@@H]1NC(=O)[C@H](CC(=O)O)NC(=O)[C@H](CO)NC(=O)[C@H]([C@@H](C)O)NC(=O)[C@H](Cc2c[nH]cn2)NC(=O)[C@H](CO)NC(=O)[C@H]([C@@H](C)CC)NC(=O)[C@H](CCCNC(=N)N)NC(=O)[C@H](CC(=O)O)NC(=O)[C@H]([C@@H](C)CC)NC(=O)[C@H](CCCNC(=N)N)NC(=O)[C@H](CCCNC(=N)N)NC(=O)CNC(=O)[C@H](Cc2ccccc2)NC(=O)[C@@H](NC(=O)[C@H](CO)NC(=O)[C@@H](NC(=O)[C@H](CC(C)C)NC(=O)[C@H](CC(C)C)NC(=O)CN)[C@@H](C)CC)CSSC[C@@H](C(=O)N[C@@H](CCCNC(=N)N)C(=O)N[C@@H](Cc2c[nH]cn2)C(=O)O)NC(=O)CNC1=O [^GRDK-Ring] (H-GLLISCFGRRIDRISHTSDIGCRH-OH; disulfide 6-22; N-terminus and C-terminus assumed) | 2.82 | 0.7 | −11.3 ± 4.3 mmHg | – | <2 µL/min | 2.9 | – | −4.8 | 70.5 | 5.0 | – | 0.113 | 10 | −44.8±20.2 BPM and −44.8 ± 20.1 BPM | 30 | 30 | 20 | fold higher potency compared to K-Ring (rat NPR-A [2]; cGMP response): 5 fold; rate of generation of cGMP compared to K-Ring (rat NPR-A [3]; EC50 concentration of peptide): slightly increased rate of cGMP production |
